Measurements published in US20240216444A1, “DESIGNED BACTERIAL COMPOSITIONS” (Seres Therapeutics, Inc., priority 2015, published 2024).

Tests used:
[1] = tested on: C. difficile carbon sources; test: Carbon source utilization, 87 carbon sources in three base media, OD600 and acid production (Example 3B); assay type: cell-based; set-up: key: “+” and “w” refer to “positive” and “weak” utilization of the carbon source, respectively; “+” and “w” refer to “positive” and “weak” utilization of the carbon source, respectively; conditions: for utilization of carbon source NAG: NAG (N-acetylglucosamine)
Excerpt: Three C. difficile strains and 12 non-C. difficile bacterial strains were profiled using a panel of carbon sources. As used herein, unless otherwise indicated, carbon sources includes all sources tested as growth substrates in the experiments herein. The three C. difficile strains were Clostridium difficile ATCC 9689, Clostridium difficile ATCC 43593, and Clostridium difficile ATCC 43255, all of which are available from the American Type Culture Collection (ATCC).
Growth of the strains was tested on 87 different carbon sources in a 96-well plate format. The panel contained 34 carbon sources reported to be utilized by C. difficile in the literature (Hafiz and Oakley. 1976 J Med Microbiol 9:129-36; Wilson and Perini. 1988 Infection and Immunity 56:2610-14; Bergey and Holt. Bergey's Manual of Determinative Bacteriology. Baltimore: Williams & Wilkins, 1994; Sebaihia et al. 2006 Nature Genetics 38:779-786) including amino acids, mono-, di-, tri- and polysaccharides, glucoside and sugar alcohols. Carbon sources were added at 0.5% into three different base media (Base medium 1 SSNC composition: beef extract 1 g/L, yeast extract 2 g/L, bacto soytone 6 g/L, NaCl 4 g/L, KH2PO4 5.44 g/L, MgSO4 2 mM, CaCl2 1 mM, MnCl2 0.1 mM, cysteine hydrochloride 0.25 g/L, hemin 10 mg/L, menadione 1 mg/L, MOPS 6.3 g/L, pH 7; Base medium 2 SPOSCR composition: beef extract 1 g/L, yeast extract 2 g/L, bacto soytone 6 g/L, NaCl 4 g/L, KH2PO4 5.44 g/L, MgSO4 2 mM, CaCl2) 1 mM, MnCl2 0.1 mM, cysteine hydrochloride 0.25 g/L, hemin 10 mg/L, menadione 1 mg/L, MOPS 8.4 g/L, NaHCO3 0.4%, pH 7; Base medium 3 YCFA: casitone 10 g/L, yeast extract 2.5 g/L, cysteine hydrochloride 1 g/L, hemin 10 mg/L, ATCC vitamin solution 10 mL/L, ATCC trace element solution 10 mL/L, K2HPO4 0.45 g/L, KH2PO4 0.45 g/L, (NH4)2SO4 0.9 g/L, MgSO4×7H2O 90 mg/L, CaCl2) 90 mg/L, acetic acid 33 mM, propionic acid 9 mM, isobutyric acid 1 mM, isovaleric acid 1 mM, valeric acid 1 mM, pH 7).
Positive growth was scored by measuring optical density at 600 nm and comparing it to growth in base medium without an added carbon source. For two, base media acid production was also scored by measuring optical density at 558 nm of pH-indicator phenol red mixed with spent medium from each culture.

[2] = tested on: HSDH activity (7-, 3- or 12-hydroxyl groups) on cholic, chenodeoxycholic, deoxycholic and lithocholic acid; test: LC-MS screen for hydroxysteroid dehydrogenase (HSDH) activity; assay type: biochemical; conditions: LC-MS
[3] = tested on: 7α-dehydroxylation of cholic acid and chenodeoxycholic acid; test: LC-MS screen for 7α-dehydroxylation (7α-OH) activity; assay type: biochemical; conditions: LC-MS
[4] = SCFA profile of bacterial culture supernatants by GC-MS; conditions: GC-MS; fucose as carbon source
Excerpt: The same bacterial culture supernatants used for HDAC inhibition assays described supra were submitted to GC-MS analysis to determine which SCFAs underlie the observed inhibition of HDAC. The method employed (MSOmics, Denmark) measures formate, acetate, propionate, butyrate, isobutyrate (2-methyl-propionate), isovalerate (3-methyl-butyrate), valerate (pentanoate), 4-methyl-pentanoate, caproate (hexanoate), and heptanoate. […] Numbers in Table 11 indicate detected SCFA concentration. B=butyrate; P=propionate; IB=isobutyrate, and IV=isovalerate.

[5] = tested on: bile salt hydrolase (BSH) activity on conjugated bile acids; test: LC-MS screen for bile salt hydrolase (BSH) activity; conditions: for BSH gCA: substrate gCA; for BSH gCDCA: substrate gCDCA; for BSH t-aMCA: substrate t-aMCA; for BSH t-bMCA: substrate t-bMCA; for BSH tCA: substrate tCA; for BSH tCDCA: substrate tCDCA
Experimental: To conduct the assay, briefly, bacteria were grown on permissive agar media plates for 24 to 48 hours to generate sufficient biomass to carry out assays. The bacterial lawns were resuspended in PBS to create a homogenous suspension that was then used for the BSH assay. To assay for BSH activity, bacterial suspensions were incubated with two separate mixtures of four distinct conjugated bile acids, each at concentration of 150 μg/ml, for 4 hours at 37° C. under anaerobic conditions. The reaction mixture was then extracted with an equal volume of acetonitrile, spun down to pellet bacteria and the supernatant filtered through a 0.2 μM filter to generate a sample for LC-MS analysis. Bile acids were determined using an Agilent 1260 HPLC coupled to a Bruker Compact qTOF MS. Samples were run on a bidentate C18 column using an acetonitrile:water buffer system to separate bile acids which were then ionized in negative mode and identified using a qTOF-MS. BSH activity was determined by the formation of deconjugated bile acid products that were verified by comparison to known standards and quantified, if necessary, using standard curves.

[6] = tested on: HDAC enzymes (HeLa nuclear extract); test: HDAC inhibition activity in supernatants of cultures grown in different carbon sources; conditions: 25% HDAC inhibition as cut off
Experimental: To determine whether the HDAC inhibition was affected by the type and level of carbon source available to a bacterial species, HDAC inhibition by supernatants derived from a selection of bacterial species used in DBCs was determined. In these experiments, bacteria were grown in a variety of carbon sources including mono-, di-, polysaccharides, and porcine mucine. Briefly, 600 μL bacterial cultures in peptone/yeast extract medium (PY) supplemented with 0.5% of the selected carbon sources were inoculated in 96 deep well plates, grown for 4 days, then the microbial cells were pelleted by centrifugation, and 15 μL of the culture medium (supernatant) was used for the HDAC assay with HeLa nuclear extract as described above. Because HDAC activity is reduced at low pH (Latham et al. 2012 Nucl Acid Res 40:4794-803) and the microbial cultures had pH as low as 5, to ensure that the final pH of the assay was not reduced by the addition of supernatant, 10 μL of a 1M Tris pH 8 solution was added per well to bring the final Tris buffer concentration to 75 mM. Thus, assays were performed with 15 μL supernatant, 10 μL 1M Tris pH 8, 25 μL of assay buffer and 50 μL of diluted HeLa nuclear extract, which were preincubated for 30 minutes prior to the addition of developing reagent. Luminescence was measured after 30 minutes.

## Clostridium disporicum
[1]; Apple pectin
  utilization of carbon source Apple pectin: w
[1]
  utilization of carbon source Citrus pectin: +
  utilization of carbon source NAG: +
  utilization of carbon source cysteine: w
  utilization of carbon source fructose: +
  utilization of carbon source glucose: +
  utilization of carbon source mannose: +
  utilization of carbon source oxalate: w
  utilization of carbon source serine: w
  utilization of carbon source sucrose: +
  utilization of carbon source trehalose: +
[1]; arbutin
  utilization of carbon source arbutin: +
[1]; cellobiose
  utilization of carbon source cellobiose: +
[1]; cyclodextrin
  utilization of carbon source cyclodextrin: +
[1]; esculin
  utilization of carbon source esculin: +
[1]; glutamine
  utilization of carbon source glutamine: w
[1]; glycogen
  utilization of carbon source glycogen: +
[1]; salicin
  utilization of carbon source salicin: +
[1]; starch
  utilization of carbon source starch: +
[1]; threonine
  utilization of carbon source threonine: w
[2]
  HSDH 3a: −
  HSDH 7a: + (‘+’ indicates greater than 50-fold increase in levels of product bile acid, suggesting strong activity)
  HSDH 12a: +/− (‘+/−’ indicates ≤50-fold change in product bile acid levels, suggesting weak activity)
[2]; 3a-HSDH
  HSDH 3a: −
[2]; 7a-HSDH
  HSDH 7a: + (‘+’ indicates greater than 50-fold increase in levels of product bile acid, suggesting strong activity)
[2]; 12a-HSDH
  HSDH 12a: −
[3]; substrate CA
  7a Dehydrox CA: −
[3]; substrate CDCA
  7a Dehydrox CDCA: −
[3]; substrate chenodeoxycholic acid
  7a Dehydrox CDCA: −
[3]; substrate cholic acid
  7a Dehydrox CA: −
[4]
  propionate production: produced propionate but only when supplied with fucose as a carbon source
[5]
  BSH gCA: −
  BSH gCDCA: +/− (‘+/−’ indicates ≤50-fold change in product bile acid levels, suggesting weak activity)
  BSH t-aMCA: + (‘+’ indicates greater than 50-fold increase in levels of product bile acid, suggesting strong activity)
  BSH t-bMCA: + (‘+’ indicates greater than 50-fold increase in levels of product bile acid, suggesting strong activity)
  BSH tCA: +/− (‘+/−’ indicates ≤50-fold change in product bile acid levels, suggesting weak activity)
  BSH tCDCA: + (‘+’ indicates greater than 50-fold increase in levels of product bile acid, suggesting strong activity)
[6]
  HDAC inhibition when alternative nutrient sources are tested: positive

## Clostridium bolteae
[1]
  utilization of carbon source Citrus pectin: +
  utilization of carbon source NAG: +
  utilization of carbon source cysteine: w
  utilization of carbon source fructose: +
  utilization of carbon source glucose: +
  utilization of carbon source mannose: +
  utilization of carbon source oxalate: +
  utilization of carbon source serine: w
  utilization of carbon source sucrose: +
  utilization of carbon source trehalose: +
[1]; melezitose
  utilization of carbon source melezitose: +
[1]; propanediol
  utilization of carbon source propanediol: +
[1]; rhamnose
  utilization of carbon source rhamnose: +
[1]; ribose
  utilization of carbon source ribose: +
[1]; sialic acid
  utilization of carbon source sialic acid: +
[1]; tryptophan
  utilization of carbon source tryptophan: w
[1]; xylose
  utilization of carbon source xylose: +
[2]
  HSDH 3a: + (‘+’ indicates greater than 50-fold increase in levels of product bile acid, suggesting strong activity)
  HSDH 7a: −
  HSDH 12a: −
[3]; substrate CA
  7a Dehydrox CA: −
[3]; substrate CDCA
  7a Dehydrox CDCA: −
[4]
  propionate production: produced propionate but only when supplied with fucose as a carbon source
[5]
  BSH gCA: + (‘+’ indicates greater than 50-fold increase in levels of product bile acid, suggesting strong activity)
  BSH gCDCA: + (‘+’ indicates greater than 50-fold increase in levels of product bile acid, suggesting strong activity)
  BSH t-aMCA: + (‘+’ indicates greater than 50-fold increase in levels of product bile acid, suggesting strong activity)
  BSH t-bMCA: + (‘+’ indicates greater than 50-fold increase in levels of product bile acid, suggesting strong activity)
  BSH tCA: + (‘+’ indicates greater than 50-fold increase in levels of product bile acid, suggesting strong activity)
  BSH tCDCA: + (‘+’ indicates greater than 50-fold increase in levels of product bile acid, suggesting strong activity)
[6]
  HDAC inhibition when alternative nutrient sources are tested: positive
